Laboratory results from ChEMBL document CHEMBL5608141, “Identification of compartment-specific drug sensitivities in CRC organoid-stroma co-cultures” (2024).

Key:
Format in all cases: functional, Homo sapiens
Design in all cases: dose or concentration left out as unconfirmed
[1] = tested on: Colon cancer organoid; test: Identification of compartment-specific drug sensitivities in O20 CRC organoid-stroma F20 CAF co-cultures. Organoid is transduced with Lucferase2-P2A-EGFP lentivirus, fibroblast with Renilla-dsRed lentivirus. Dual-Glo Luciferase assay is used to report viability data.
[2] = tested on: Colon cancer organoid; test: Identification of compartment-specific drug sensitivities in O06 CRC organoid-stroma F06 CAF co-cultures. Organoid is transduced with Lucferase2-P2A-EGFP lentivirus, fibroblast with Renilla-dsRed lentivirus. Dual-Glo Luciferase assay is used to report viability data.
[3] = tested on: Colon cancer organoid; test: Identification of compartment-specific drug sensitivities in O14 CRC organoid-stroma F14 CAF co-cultures. Organoid is transduced with Lucferase2-P2A-EGFP lentivirus, fibroblast with Renilla-dsRed lentivirus. Dual-Glo Luciferase assay is used to report viability data.
[4] = Transduced with Lucferase2-P2A-EGFP lentivirus
[5] = Transduced with Renilla-dsRed lentivirus

Compound	Cell Viability [1, 4] [%]	Cell Viability [1, 5] [%]	Cell Viability [2, 4] [%]	Cell Viability [2, 5] [%]	Cell Viability [3, 4] [%]	Cell Viability [3, 5] [%]
Cl.Cl.Cl.c1ccc(N2CCN(Cc3nc4ccccc4[nH]3)CC2)nc1	41.4322	124.541	46.7197	192.419	99.1029	116.587
O=C(Nc1cccnn1)N1CCC(=Cc2cccc(Oc3ccc(C(F)(F)F)cn3)c2)CC1	75.4997	114.419	103.919	125.543	96.3845	120.944
COc1ccc(Cn2ccc3ccc(C(=O)NO)cc32)cc1	177.336	111.53	111.578	129.424	104.237	105.297
COc1ccccc1S(=O)(=O)Nc1ccc2c(c1)CN(C)C(=O)N2	112.453	99.8859	75.1061	112.248	127.49	84.3735
Cc1cc(C)cc(C(=O)NOCCCCCC(=O)NO)c1	15.4081	402.959	13.8956	454.718	50.2494	170.815
CCn1cc(-c2cccc(C(F)(F)F)c2)c2sc(C(=N)NC3CCS(=O)(=O)CC3)cc2c1=O	61.0963	124.144	95.4713	165.165	135.151	119.275
CCCOc1ccn2c(C(C)=O)cc(-c3cccc(OC)c3)c2c1	77.121	110.044	110.241	146.669	85.0656	86.803
COc1cc2c(cc1NS(=O)(=O)c1ccc(Br)cc1C)n(C)c(=O)n2C	86.7229	193.757	53.0589	146.987	88.9015	103.244
Clc1cccc(-c2nnnn2Cc2cccnc2)c1Cl	106.259	101.74	149.518	281.873	96.2273	101.208
Cc1nc(N2CC[C@H](O)C2)ncc1-c1cc(C(F)(F)F)cc2[nH]ncc12	47.2711	153.575	124.32	144.84	76.9456	116.548
C[C@@H]1CC(=O)Nc2cccc(-c3ccc4c(c3)c(-c3cnn(C)c3)nn4C)c2N1	69.4002	148.573	96.7982	166.358	127.46	126.975
CN1C[C@H](Nc2cnn(C)c(=O)c2Br)C[C@H](c2ccccc2)C1	160.124	106.068	52.3497	181.327	132.078	105.854
O=C1CCc2cc(Nc3cc(OC4CCOCC4)c([N+](=O)[O-])cc3Cl)ccc2N1	150.133	114.972	74.579	100.938	98.9348	106.803
CO[C@H]1CNC[C@@H](OCC2CCC(F)(F)CC2)[C@@H]1Nc1ncc(-c2cncc(C)c2)c2cc(C)c(=O)[nH]c12	171.771	122.949	95.0954	138.476	145.9	102.552
Cc1sc2c(c1C)C(c1ccc(Cl)cc1)=N[C@@H](CC(=O)NCCCCCCCCNC(=O)COc1cccc3c1C(=O)N(C1CCC(=O)NC1=O)C3=O)c1nnc(C)n1-2 (stereo partly drawn)	2.01	74.9854	5.4511	19.3995	5.905	10.8389
Cl.O=C(O)c1cc(-c2ccc(C3CCNCC3)cc2)c2ccc(-c3ccc(C(F)(F)F)cc3)cc2c1	106.654	101.384	107.895	117.47	158.935	99.9399
Cc1c(C(=O)O)cc(-c2ccc(C3CCNCC3)cc2)c2ccc(-c3ccc(C(F)(F)F)cc3)cc12.Cl	115.772	99.1911	69.2582	93.9723	68.1012	79.713

Compound	Cell Viability [1, 4] [%]	Cell Viability [1, 5] [%]	Cell Viability [2, 4] [%]	Cell Viability [2, 5] [%]	Cell Viability [3, 4] [%]	Cell Viability [3, 5] [%]
C[C@@H](c1cccc(CN)c1)n1cc(Cl)cc(C(N)=O)c1=N.Cl	85.1763	93.567	104.535	114.984	112.906	94.626
Cc1c(Nc2ccc(S(=O)(=O)N3CCN(C)CC3)cc2F)nc2ccc(Nc3cnn(C4CC4)c3)cn2c1=O	118.006	135.679	81.8172	120.859	108.37	91.7144
C[C@@H](c1cccc(C#N)c1)n1cc(Cl)cc(C(N)=O)c1=N.Cl	64.4613	72.4154	92.5611	127.503	101.632	106.42
O=C(NCc1ccccc1)c1ccc(S(=O)(=O)NCc2ccccc2)cc1	89.1581	96.8328	32.2843	131.443	108.82	110.313
O=C(Nc1cccnn1)N1CC(C/C=C/c2cncc(Oc3ccc(C(F)(F)F)cn3)n2)C1	97.9448	112.944	130.234	92.9489	132.074	108.992
Cc1c(Nc2ccc(S(=O)(=O)N3CCN(C)CC3)cc2F)nc2ccc(-c3cnn(C4CC4)c3)cn2c1=O	100.446	149.535	106.525	138.146	116.873	77.7436
CCOC(=O)CCNc1cc(N2CCc3ccccc3CC2)nc(-c2cccnc2)n1	102.371	131.422	130.773	124.082	87.4597	97.4259
C[C@H]1CCCN1Cc1nc2cc(NC(=O)c3ccc4cnccc4c3)ccc2[nH]1	98.7446	149.477	122.515	131.721	76.6817	109.65
Cc1cc(C)cc([C@@H]2c3cc(C)ccc3NC(=O)CN2C(=O)c2ccc(Br)s2)c1	135.909	541.943	107.168	464.523	110.484	405.65
Cc1cc(C)cc([C@H]2c3cc(C)ccc3NC(=O)CN2C(=O)c2ccc(Br)s2)c1	134.675	98.7461	94.0417	115.465	153.941	101.442
COCCN1CCC(c2cc(CN(C)C(=O)c3cccc(Oc4ccccc4)c3)ccn2)CC1	94.6976	115.605	91.2389	131.922	131.353	104.266
CC(=O)c1cc(-c2ccccc2OCC2CC2)c2ncccn12	91.2961	121.201	107.249	181.775	107.478	95.946
Cc1cc(CN)cc(C)c1-c1ncn(C)c1-c1cncn1C	127.793	117.48	121.461	141.638	88.8994	94.9152
CC(C)Oc1ccc(-c2c[nH]cc2CN(C)CCO)cc1	114.429	121.653	112.392	114.959	129.064	102.719
CCNC(=O)c1cc2c(N3CCOCC3C)ccnc2[nH]1 (stereo not drawn)	144.452	100.256	130.766	119.513	143.994	130.326
Cl.Cn1cncc1[C@](O)(COc1ccc(C#N)cc1-c1ccc(OC(F)(F)F)cc1)c1ccc(C#N)cc1	15.3114	150.357	46.0933	149.066	31.1337	75.4889
